From publication PMC3161871, “Heteroarylketones inhibit astroglial interleukin-6 expression via a STAT3/NF-κB signaling pathway” (Journal of Neuroinflammation, 2011)

Tests used:
[1] = tested on: OSM-stimulated IL-6 secretion from U343 cells; assay: OSM-induced IL-6 release from U343 glioma cells (IL-6 ELISA of conditioned medium); assay type: cell-based, human
Method: The human glioma cell line U343 [34] was maintained in DMEM containing 10% fetal bovine serum and 60 μg/ml gentamycin (Invitrogen, Darmstadt, Germany) at 37°C in a 10% CO2 atmosphere.
(§1) Measurements of IL-6 in conditioned medium and murine plasma samples were done by means of human- or murine-specific IL-6 Cytoset kits (Invitrogen, Darmstadt, Germany) according to manufacturer's protocols.
Using the characterized cell culture model of OSM-induced IL-6 expression, our in-house compound libraries were screened for potent IL-6 expression inhibitors. Human U343 glioma cells were treated with 100 ng/ml OSM for 24 h. The analysis by IL-6 ELISA identified a set of structurally related compounds as potent inhibitors of IL-6 secretion (Table 1). […] HAKs with proline in position P1 are known from the literature as inhibitors of prolyl endopeptidase (PREP), a proline-specific serine protease.

[2] = tested on: LPS-induced IL-6 release in primary mouse astrocytes; assay: LPS-induced IL-6 release in primary mouse astrocytes (ELISA); assay type: cell-based; settings: 1 μg/ml LPS, 20 μM compound, 24 h
Method: (§2) According to Löffler, astrocyte-rich primary cell cultures were started with brains of newborn mice and rats and were maintained in Dulbecco's modified Eagle's medium (DMEM) for 33 days at 37°C in a humified atmosphere with 95% air/5% CO2.
as §1
(§3) Figure 5 Suppression of LPS-induced IL-6 release in primary murine astrocytes by selected HAK compounds. […] Astrocytes derived from newborn mice and rats were cultivated for 33 days followed by stimulation with 1 μg/ml LPS and treatment with compounds HAK-2 and HAK-5 (20 μM). After 24 hours conditioned media were analyzed with IL-6 specific ELISA. Data (mean ± SD) were obtained from experiments carried out in quadruplicate and statistical analysis was performed using the paired t test. Amount of IL-6 in LPS-treated control sample was set to 100%. ns, not significant; **p < 0.01; ***p < 0.001.
(§4) Primary murine astrocytes stimulated with 1 μg/ml LPS were co-treated with compounds HAK-2 and HAK-5 at a concentration of 20 μM each for 24 h. The observed effect of compounds HAK-2 and HAK-5 on LPS stimulation was similar to that of OSM-induced IL-6 expression in human U343 glioma cells (Figures 5A and 5B). […]

[3] = tested on: LPS-induced IL-6 release in primary rat astrocytes; assay: LPS-induced IL-6 release in primary rat astrocytes (ELISA); assay type: cell-based; settings: 1 μg/ml LPS, 20 μM compound, 24 h
Method: as §2, §1, §3, §4

In the case of `C[C@H](NC(=O)OCc1ccccc1)C(=O)N1CCC[C@H]1C(=O)c1nc2ccccc2s1` [HAK-2, Z-Ala-Pro-BTh], the “Remaining IL-6 expression [% of control]” value ([1]; 100 ng/ml OSM, 24 h, IL-6 release of vehicle-treated cells set to 100% (n = 2), mean ± SD) is reported as 18.7 ± 3.87 % of control, the “Effect on OSM-induced IL-6 secretion (in words)” value ([1]; OSM-stimulated) is reported as “significantly reduced” and the “Reduction of LPS-induced IL-6 expression” value [2] is reported as 60%. The “Reduction of LPS-induced IL-6 expression” value [3] was 50%.
